Reference: EP4678629A1, “IONIZABLE LIPID MOLECULE, PREPARATION METHOD THEREFOR AND USE THEREOF” (Maxirna (Shanghai) Pharmaceutical Co., Ltd., priority 2023, dated 2024)

Key:
DC2.4 cells = experiment: In vitro transfection of cells with eGFP-mRNA lipid nanoparticle (LNP preparation), fluorescence imaging and flow cytometry; type: cell-based, mouse; conditions: eGFP positivity rate, DC2.4 cells, 200 ng of mRNA per well, after 24 hours
Procedure, shortened: (§1)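 Mouse bone marrow-derived DC2.4 dendritic cells seeded at 2 × 10^5 cells/well in DMEM with 10% FBS, transfected with eGFP-mRNA LNPs the next day at 37 °C, 5% CO2. After 24 hours, viability, eGFP-positive rate and mean fluorescence intensity read by fluorescence imaging and flow cytometry.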

[1] = as above; type: cell-based, mouse; conditions: mouse, dc2.4 cells, 200 ng of mRNA per well, after 24 hours; read-out: Cell viability, %
Procedure, shortened: as §1

[2] = Encapsulation efficiency of the lipid nanoparticle (eGFP mRNA) by Ribogreen method; type: physicochemical; conditions: LNP encapsulating eGFP mRNA, ionizable lipid/DOPE/cholesterol/DMG-PEG2000 50/10/48.25/1.25 mol%, N/P 12
Procedure, shortened: (§2)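 LNPs were made by microfluidic mixing of ionizable lipid/DOPE/cholesterol/DMG-PEG2000 (50/10/48.25/1.25 mol%) in ethanol with eGFP mRNA in 20 mM citrate pH 6.1, N/P 12, then ultrafiltered into DPBS and 0.2 µm filtered. Size and PDI by DLS at 173° backscatter; encapsulation by Ribogreen.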

[3] = Size and polydispersity index (PDI) of the lipid nanoparticle by dynamic light scattering; type: physicochemical; conditions: LNP encapsulating eGFP mRNA, ionizable lipid/DOPE/cholesterol/DMG-PEG2000 50/10/48.25/1.25 mol%, N/P 12; for Particle size: in nm (unit assumed)
Procedure, shortened: as §2

Row | Encapsulation rate, % [2] [%] | PDI [3] | Particle size [3] | Compound | Positive rate, % (DC2.4 cells) [%] | viability at 24 h [1] [%]
1 | 99.28 | 0.18 | 75.07 | CCCCCCCCCCCCOC(=O)CCCCCCCN(CCCO)CCCN(CCCCCCCC(=O)OCCCCCCCCCCCC)CCCCCCCC(=O)OCCCCCCCCCCCC [Example 51, Didodecyl 8,8'-((3-((8-(dodecyloxy)-8-oxooctyl)(3-hydroxypropyl)amino)propyl)azanediyl)dioctanoate] | 99.64 | 92
2 | 99.18 | 0.17 | 69.63 | CCCCCCCCCCCCOC(=O)CCCCCCCN(CCCCO)CCCN(CCCCCCCC(=O)OCCCCCCCCCCCC)CCCCCCCC(=O)OCCCCCCCCCCCC [Example 52, Didodecyl 8,8'-((3-((8-(dodecyloxy)-8-oxooctyl)(4-hydroxybutyl)amino)propyl)azanediyl)dioctanoate] | 85.37 | 82.9
3 | 97.67 | 0.09 | 91.34 | CCCCCCCCCCCCCCOC(=O)CCCCCN(CCO)CCCN(CCCCCC(=O)OCCCCCCCCCCCCCC)CCCCCC(=O)OCCCCCCCCCCCCCC [Example 53, Ditetradecyl 6,6'-((3-((2-hydroxyethyl)(6-oxo-6-(tetradecyloxy)hexyl)amino)propyl)azanediyl)dihexanoate] | 86.07 | 68.6
4 | 98.91 | 0.14 | 72.45 | CCCCCCCCCCCCCCOC(=O)CCCCCN(CCCO)CCCN(CCCCCC(=O)OCCCCCCCCCCCCCC)CCCCCC(=O)OCCCCCCCCCCCCCC [Example 54, Ditetradecyl 6,6'-((3-((3-hydroxypropyl)(6-oxo-6-(tetradecyloxy)hexyl)amino)propyl)azanediyl)dihexanoate] | 93.13 | 75.9
5 | 98.32 | 0.10 | 71.95 | CCCCCCCCCCCCCCOC(=O)CCCCCN(CCCCO)CCCN(CCCCCC(=O)OCCCCCCCCCCCCCC)CCCCCC(=O)OCCCCCCCCCCCCCC [Example 55, Ditetradecyl 6,6'-((3-((4-hydroxybutyl)(6-oxo-6-(tetradecyloxy)hexyl)amino)propyl)azanediyl)dihexanoate] | 92.64 | 86.6
6 | 99.68 | 0.14 | 64.31 | CCCCCCCCCCCCCCOC(=O)CCCCCCN(CCO)CCCN(CCCCCCC(=O)OCCCCCCCCCCCCCC)CCCCCCC(=O)OCCCCCCCCCCCCCC [Example 56, Ditetradecyl 7,7'-((3-((2-hydroxyethyl)(7-oxo-7-(tetradecyloxy)heptyl)amino)propyl)azanediyl)diheptanoate] | 93.64 | 80.5
7 | 99.36 | 0.17 | 68.32 | CCCCCCCCCCCCCCOC(=O)CCCCCCN(CCCO)CCCN(CCCCCCC(=O)OCCCCCCCCCCCCCC)CCCCCCC(=O)OCCCCCCCCCCCCCC [Example 57, Ditetradecyl 7,7'-((3-((3-hydroxypropyl)(7-oxo-7-(tetradecyloxy)heptyl)amino)propyl)azanediyl)diheptanoate] | 97.36 | 76.9
8 | 99.17 | 0.16 | 79.13 | CCCCCCCCCCCCCCOC(=O)CCCCCCN(CCCCO)CCCN(CCCCCCC(=O)OCCCCCCCCCCCCCC)CCCCCCC(=O)OCCCCCCCCCCCCCC [Example 58, Ditetradecyl 7,7'-((3-((4-hydroxybutyl)(7-oxo-7-(tetradecyloxy)heptyl)amino)propyl)azanediyl)diheptanoate] | 87.44 | 63.2
9 | 91.15 | 0.08 | – | CCCCCCCCCCCCCCOC(=O)CCCCCCCN(CCO)CCCN(CCCCCCCC(=O)OCCCCCCCCCCCCCC)CCCCCCCC(=O)OCCCCCCCCCCCCCC [Example 59, Ditetradecyl 8,8'-((3-((2-hydroxyethyl)(8-oxo-8-(tetradecyloxy)octyl)amino)propyl)azanediyl)dioctanoate] | 96.89 | 55.6
10 | 99.46 | 0.10 | 65.40 | CCCCCCCCCCCCCCOC(=O)CCCCCCCN(CCCO)CCCN(CCCCCCCC(=O)OCCCCCCCCCCCCCC)CCCCCCCC(=O)OCCCCCCCCCCCCCC [Example 60, Ditetradecyl 8,8'-((3-((3-hydroxypropyl)(8-oxo-8-(tetradecyloxy)octyl)amino)propyl)azanediyl)dioctanoate] | 97.14 | 72.3
11 | 97.38 | 0.13 | 82.47 | CCCCCCCCCCCCCCOC(=O)CCCCCCCN(CCCCO)CCCN(CCCCCCCC(=O)OCCCCCCCCCCCCCC)CCCCCCCC(=O)OCCCCCCCCCCCCCC [Example 61, Ditetradecyl 8,8'-((3-((4-hydroxybutyl)(8-oxo-8-(tetradecyloxy)octyl)amino)propyl)azanediyl)dioctanoate] | 95.85 | 71.2
12 | 99.32 | 0.16 | 99.80 | CCCCCCCCCCCCCOC(=O)CCCN(CCO)CCCN(CCCC(=O)OCCCCCCCCCCCCC)CCCC(=O)OCCCCCCCCCCCCC [Example 62, Ditridecyl 4,4'-((3-((2-hydroxyethyl)(4-oxo-4-(tridecyloxy)butyl)amino)propyl)azanediyl)dibutanoate] | 96.24 | 59
13 | 97.68 | 0.15 | 84.74 | CCCCCCCCCCCCCOC(=O)CCCN(CCCO)CCCN(CCCC(=O)OCCCCCCCCCCCCC)CCCC(=O)OCCCCCCCCCCCCC [Example 63, Ditridecyl 4,4'-((3-((3-hydroxypropyl)(4-oxo-4-(tridecyloxy)butyl)amino)propyl)azanediyl)dibutanoate] | 92.85 | 63.4
14 | 98.93 | 0.19 | 90.58 | CCCCCCCCCCCOC(=O)CCCN(CCCO)CCCN(CCCC(=O)OCCCCCCCCCCC)CCCC(=O)OCCCCCCCCCCC [Example 64, Diundecyl 4,4'-((3-((3-hydroxypropyl)(4-oxo-4-(undecyloxy)butyl)amino)propyl)azanediyl)dibutanoate] | 99.18 | 64.6
15 | 96.31 | 0.20 | 90.10 | CCCCCCCCCCCCCOC(=O)CCCN(CCCCO)CCCN(CCCC(=O)OCCCCCCCCCCCCC)CCCC(=O)OCCCCCCCCCCCCC [Example 65, Ditridecyl 4,4'-((3-((4-hydroxybutyl)(4-oxo-4-(tridecyloxy)butyl)amino)propyl)azanediyl)dibutanoate] | 96.80 | 60.3
16 | 94.12 | 0.14 | – | CCCCCCCCCCCOC(=O)CCCN(CCCCO)CCCN(CCCC(=O)OCCCCCCCCCCC)CCCC(=O)OCCCCCCCCCCC [Example 66, Diundecyl 4,4'-((3-((4-hydroxybutyl)(4-oxo-4-(undecyloxy)butyl)amino)propyl)azanediyl)dibutanoate] | 98.63 | 76.7
17 | 66.08 | 0.20 | 86.08 | CCCCCCCCCCCOC(=O)CCN(CCO)CCCN(CCC(=O)OCCCCCCCCCCC)CCC(=O)OCCCCCCCCCCC [Example 67, Diundecyl 3,3'-((3-((2-hydroxyethyl)(3-oxo-3-(undecyloxy)propyl)amino)propyl)azanediyl)dipropionate] | 98.32 | 95.8
18 | 95.99 | 0.18 | – | CCCCCCCCCCCOC(=O)CCN(CCCO)CCCN(CCC(=O)OCCCCCCCCCCC)CCC(=O)OCCCCCCCCCCC [Example 68, Diundecyl 3,3'-((3-((3-hydroxypropyl)(3-oxo-3-(undecyloxy)propyl)amino)propyl)azanediyl)dipropionate] | 98.77 | 94.9
19 | 85.47 | 0.13 | – | CCCCCCCCCCCOC(=O)CCN(CCCCO)CCCN(CCC(=O)OCCCCCCCCCCC)CCC(=O)OCCCCCCCCCCC [Example 69, Diundecyl 3,3'-((3-((4-hydroxybutyl)(3-oxo-3-(undecyloxy)propyl)amino)propyl)azanediyl)dipropionate] | 97.10 | 91.9
20 | 97.26 | 0.11 | – | CCCCCCCCCCCCCOC(=O)CCN(CCO)CCCN(CCC(=O)OCCCCCCCCCCCCC)CCC(=O)OCCCCCCCCCCCCC [Example 70, Ditridecyl 3,3'-((3-((2-hydroxyethyl)(3-oxo-3-(tridecyloxy)propyl)amino)propyl)azanediyl)dipropionate] | 99.07 | 91.2
